Measured values as given in ChEMBL document CHEMBL1128360 (J Med Chem, 1995).

Biological target: T1, 5-hydroxytryptamine receptor 1A (Rattus norvegicus, UniProt P19327)
T1 sequence (P19327 whole entry): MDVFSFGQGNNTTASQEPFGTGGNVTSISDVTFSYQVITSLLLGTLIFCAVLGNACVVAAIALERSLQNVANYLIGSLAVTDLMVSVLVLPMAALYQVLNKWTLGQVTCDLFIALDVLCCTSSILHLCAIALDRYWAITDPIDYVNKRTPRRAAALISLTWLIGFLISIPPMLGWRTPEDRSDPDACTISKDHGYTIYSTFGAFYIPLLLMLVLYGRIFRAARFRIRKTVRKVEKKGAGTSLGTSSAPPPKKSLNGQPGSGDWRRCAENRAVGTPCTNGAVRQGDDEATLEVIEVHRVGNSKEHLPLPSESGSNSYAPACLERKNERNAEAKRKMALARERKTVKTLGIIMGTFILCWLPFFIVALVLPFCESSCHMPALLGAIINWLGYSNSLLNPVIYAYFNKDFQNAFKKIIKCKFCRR
Assay: Inhibitory affinity constant against 5-hydroxytryptamine 1A receptor

**Q.** With `CC1(C)CC(=O)N(CCCCN2CCN(c3ccc4ccccc4n3)CC2)C(=O)C1` as the compound, how does the Ki read?
**A.** 10.5 nM
